# Measurements reported in patent publication EP4660190A1, “PHARMACEUTICALLY ACCEPTABLE SALT OF COMPOUND AND PREPARATION METHOD THEREFOR” (Jiangsu Chia Tai Fenghai Pharmaceutical Co., Ltd., priority 2023, dated 2024).
# Marks after values point to notes of the source that are not given here.
# Tests used:
# [1] = tested on: Middle cerebral artery occlusion (MCAO) models of SD rata; experiment: Rat MCAO model, 28-day dosing, pathological examination (restoration area, perfused blood vessels); type: in vivo, SD rats; conditions: for Proportion of samples showing good recovery (%): restoration area > 30%; for No. of erythrocyte-containing blood vessels ≤10: number of animals
# Method: Middle cerebral artery occlusion (MCAO) models of SD rata were constructed by using the suture occlusion method. The rats were administered with the test compound for 28 consecutive days. The pharmacodynamic evaluation on the test compound for cerebral stroke was obtained based on general observation and neurobehavioral assessment. […] The ECA was ligated. The ICA was temporarily occluded. Sutures were threaded at both the proximal end and the distal end of CCA. The distal end was securely ligated, and a loosely tied knot was placed at the proximal end. A small incision was made on the CCA between these two sutures. […] The threading was halted temporarily when reaching the artery clamp of ICA. The pre-ligation suture was further tightened. The artery clamp blocking the blood flow in the ICA was removed, allowing the suture occlusion to be advanced into the ICA until it entered the intracranial region. […] The insertion was stopped at the moment, and the time was recorded. The artery clamp on the CCA was removed and the incision was closed after no active bleeding was observed. The ischemic rats were placed at room temperature to keep their body temperature at 37°C, and anesthesia induction could be carried out 120min later. The suture was slowly and gradually withdrawn under anesthesia until the proximal end retracted into the ECA, thereby initiating reperfusion of the middle cerebral artery. Animals received the designated dosage immediately (within 10 min) after reperfusion. This dosing regimen continued once daily for a duration of 28 days, with the day of operation being defined as D1 (Day 0). […] After the completion of the 28-day dosing period, all surviving animals in the study were euthanized, and their brains were rapidly collected for pathological analysis. […] Table 8 Results of Grid Walking Test […] Table 10 Summary of Tissue Restoration in Each Group
# [2] = tested on: Middle cerebral artery occlusion (MCAO) models of SD rata; experiment: Rat MCAO model, 28-day dosing, novel object recognition test; type: in vivo, SD rats; conditions: test on D27, Mean±SD
# Method: Middle cerebral artery occlusion (MCAO) models of SD rata were constructed by using the suture occlusion method. The rats were administered with the test compound for 28 consecutive days. The pharmacodynamic evaluation on the test compound for cerebral stroke was obtained based on general observation and neurobehavioral assessment. […] The ECA was ligated. The ICA was temporarily occluded. Sutures were threaded at both the proximal end and the distal end of CCA. The distal end was securely ligated, and a loosely tied knot was placed at the proximal end. A small incision was made on the CCA between these two sutures. […] The threading was halted temporarily when reaching the artery clamp of ICA. The pre-ligation suture was further tightened. The artery clamp blocking the blood flow in the ICA was removed, allowing the suture occlusion to be advanced into the ICA until it entered the intracranial region. […] The insertion was stopped at the moment, and the time was recorded. The artery clamp on the CCA was removed and the incision was closed after no active bleeding was observed. The ischemic rats were placed at room temperature to keep their body temperature at 37°C, and anesthesia induction could be carried out 120min later. The suture was slowly and gradually withdrawn under anesthesia until the proximal end retracted into the ECA, thereby initiating reperfusion of the middle cerebral artery. Animals received the designated dosage immediately (within 10 min) after reperfusion. This dosing regimen continued once daily for a duration of 28 days, with the day of operation being defined as D1 (Day 0). […] After the completion of the 28-day dosing period, all surviving animals in the study were euthanized, and their brains were rapidly collected for pathological analysis. […] Table 8 Results of Grid Walking Test (2) A novel object recognition test was performed on the last day of the treatment and the novel object recognition index (NRI) of animals in each group was calculated. […] The result has shown that Compound (I) has significant effect on animals with cognitive impairment caused by stroke (see details in Table 9). Table 9 Results of novel object recognition tests
# [3] = tested on: Middle cerebral artery occlusion (MCAO) models of SD rats; experiment: Rat MCAO model, 7 daily doses, neurobehavioral scoring (Bederson, NSS); type: in vivo; design: scale not given here; conditions: for NSS: 60mg/kg
# Text: Middle cerebral artery occlusion (MCAO) models of SD rats were constructed using the suture occlusion method to evaluate the neuroprotective effect of the compound on neurons of rats after cerebral ischemia-reperfusion. […] The ECA was ligated. The ICA was temporarily occluded. Sutures were threaded at both the proximal end and the distal end of CCA. The distal end was securely ligated, and a loosely tied knot was placed at the proximal end. A small incision was made on the CCA between these two sutures. […] The threading was halted temporarily when reaching the artery clamp of ICA. The pre-ligation suture was further tightened. The artery clamp blocking the blood flow in the ICA was removed, allowing the suture occlusion to be advanced into the ICA until it entered the intracranial region. […] The insertion was stopped at the moment, and the time was recorded. The artery clamp on the CCA was removed and the incision was closed after no active bleeding was observed. The ischemic rats were placed at room temperature to keep their body temperature at 37°C, and anesthesia induction could be carried out 120min later. The suture was slowly and gradually withdrawn when the rats were maintained under anesthesia, so that the proximal end of the suture returned to the ECA, thereby initiating reperfusion of the middle cerebral artery. […] A single dose was administered immediately after reperfusion (within 10 minutes), followed by one dose per day for a total of 7 consecutive doses (including the first dose). Except for the initial administration, all subsequent doses were given between 4:00 PM and 7:00 PM each day. […] Animals were euthanized 7 days after ischemia reperfusion, and the brains were rapidly taken, frozen, and dissected for TTC staining. The normal tissues were rose-red after staining, and the infarcted tissues were white. The infarct size (%) percentage, calculated as the weight of infarcted tissues to the weight of the whole brain, is used to evaluate the degree of cerebral ischemic injury in rats. […] Table 12 Cerebral infarct size and cerebral infarction inhibition rate of experimental animals (2) Neurobehavioral scoring: […] Table 13: Results of Neurobehavioral Scores in Animals
# [4] = 60mg/kg p.o. q.d. 28 days, N = 14
# [5] = high dose 20mg/kg p.o. q.d. 28 days
# [6] = high dose 20mg/kg p.o. q.d. 28 days, N = 12
# [7] = low dose 6mg/kg p.o. q.d. 28 days
# [8] = low dose 6mg/kg p.o. q.d. 28 days, N = 12
molecule,measurement,setting,value
"CCCCC1OC(=O)c2ccccc21 (centres unmarked) [Butylphthalide, butylphthalide, reference compound]",Proportion of erythrocyte-containing blood vessels>10 (%),[1]; 60mg/kg p.o. q.d. 28 days,93.3%
same,Number of samples Restoration area > 30%,[1]; [4],3
same,Number of samples Restoration area ≤ 30%,[1]; [4],11
same,Proportion of samples showing good recovery (%),[1]; 60mg/kg p.o. q.d. 28 days,21.4%
same,No. of erythrocyte-containing blood vessels ≤10,"[1]; 60mg/kg p.o. q.d. 28 days, N = 15",1
same,Sniffing time (S) Familiar object,[2]; 60mg/kg p.o. q.d.,1.60± 1.01 S
same,Sniffing time (S) Novel object,[2]; 60mg/kg p.o. q.d.,4.94± 3.60 S
same,Bederson,"[3]; 60mg/kg group, score after surgery, Mean±SD",3.00± 0.00
same,NSS,"[3]; D0 (one day before surgery), Mean±SD",0.00± 0.00
same,NSS,"[3]; D2 (1 day after surgery), Mean±SD",6.71± 1.36
same,NSS,"[3]; D4 (3 days after surgery), Mean±SD",5.75±0.92
same,NSS,"[3]; D6 (5 days after surgery), Mean±SD",4.88± 1.73
same,NSS,"[3]; D8 (7 days after surgery), Mean±SD",4.04±1.20
CCC/C(O)=C1/C(=O)Oc2ccccc21 [Compound (I)],Proportion of erythrocyte-containing blood vessels>10 (%),[1]; [5],92.3%
same,Number of samples Restoration area > 30%,[1]; [6],9**
same,Number of samples Restoration area ≤ 30%,[1]; [6],3
same,Proportion of samples showing good recovery (%),[1]; [5],75.0%
same,Proportion of erythrocyte-containing blood vessels>10 (%),[1]; [7],100%
same,Number of samples Restoration area > 30%,[1]; [8],4
same,Number of samples Restoration area ≤ 30%,[1]; [8],8
same,Proportion of samples showing good recovery (%),[1]; [7],33.3%
same,No. of erythrocyte-containing blood vessels ≤10,"[1]; high dose 20mg/kg p.o. q.d. 28 days, N = 13",1
same,No. of erythrocyte-containing blood vessels ≤10,[1]; [8],0
same,Recognition index (%) Familiar object,[2]; high dose 20mg/kg p.o. q.d.,28.34± 17.06%
same,Sniffing time (S) Familiar object,[2]; high dose 20mg/kg p.o. q.d.,2.20± 1.66 S
same,Sniffing time (S) Novel object,[2]; high dose 20mg/kg p.o. q.d.,5.62± 3.60 S
same,Recognition index (%) Novel object,"[2]; high dose 20mg/kg p.o. q.d., 20 mg/kg",71.66±17.06%
same,Recognition index (%) Familiar object,[2]; low dose 6mg/kg p.o. q.d.,29.02± 22.60%
same,Sniffing time (S) Familiar object,[2]; low dose 6mg/kg p.o. q.d.,1.54± 1.10 S
same,Sniffing time (S) Novel object,[2]; low dose 6mg/kg p.o. q.d.,4.74± 3.61 S
same,Recognition index (%) Novel object,"[2]; low dose 6mg/kg p.o. q.d., 6 mg/kg",70.98±22.60%
(Z)-3-(1-hydroxybutenyl)benzofuran-2-one tromethamine salt [Example 10],Bederson,"[3]; rat, in vivo",3.00± 0.00
